Results: patent US12295920B2, “Composition for treatment, prevention, or amelioration of Alzheimer's disease, a composition for suppression of brain nerve cell death, a composition for suppression of microglia activation induced by amyloid β peptide, and a composition for suppression of PGE2, TNF-α, or IL-1β production induced …” (House Wellness Foods Corporation, priority 2018, dated 2025)

What was measured:
[1] = test system: macrophage cells differentiated from THP-1 cells; assay: Suppression of IL-1β production by macrophage cells activated by amyloid β peptide aggregate (ELISA); type: cell-based, human; conditions: 50 μM and 100 μM compound, 24 h pretreatment; 25 μM Aβ aggregate 24 h; FIG. 3
Description: (§1) 1.4. Evaluation of Activity of Suppressing Activation of Macrophage Cells Induced by Amyloid β Peptide Cells of the human monocytic cell line THP-1 were suspended in RPMI1640 (10% FBS) medium, the cells were seeded in a 96-well plate at 8.0×10^4 cells/well, 100 nM 12-O-tetradecanoylphorbol 13-acetate (PMA, differentiation-inducing factor) was added thereto, and culture was conducted in the presence of 5% CO2 for 24 hours to differentiate the cells into macrophage cells. Thereafter, the medium was exchanged with another RPMI1640 (10% FBS) medium containing either the turmeric extracts (50, 100, and 200 μg/ml), termeronol A (12.5, 25, 50, or 100 μM), or termeronol B (12.5, 25, 50, or 100 μM), and culture was conducted in the presence of 5% CO2 for 24 hours to treat the cells with each specimen. Thereafter, the medium was exchanged with another RPMI1640 (2% FBS) medium containing an aggregate of 25 μM amyloid β peptides (Aβ), and culture was conducted in the presence of 5% CO2 for 24 hours to activate the cells. Thereafter, prostaglandin E2 (PGE2), the tumor necrosis factor α (TNF-α), and interleukin-1β (IL-1β) released in the medium were assayed via ELISA.

[2] = test system: macrophage cells differentiated from THP-1 cells; assay: Suppression of TNF-α production by macrophage cells activated by amyloid β peptide aggregate (ELISA); type: cell-based, human; conditions: 50 μM and 100 μM compound, 24 h pretreatment; 25 μM Aβ aggregate 24 h; FIG. 2
Description: as §1

[3] = test system: human neuroblastoma SHSY5Y cells; assay: Cell death of SHSY5Y cells induced by conditioned medium of Aβ-activated macrophage cells (WST-1 assay); type: cell-based; conditions: macrophage cells pretreated with termeronol B 50 μM 24 h, then 25 μM Aβ 12 h; SHSY5Y 48 h in conditioned medium; vs control (Aβ+); FIG. 4
Description: Cells of the human monocytic cell line THP-1 were suspended in RPMI1640 (10% FBS) medium, the cells were seeded in a 96-well plate at 8.0×10^4 cells/well, 100 nM 12-O-tetradecanoylphorbol 13-acetate (PMA, differentiation-inducing factor) was added thereto, and culture was conducted in the presence of 5% CO2 for 24 hours to differentiate the cells into macrophage cells. […]
WST-1 assays comprise: adding WST-1 (2-(4-iodophenyl)-3-(4-nitrophenyl)-5-(2,4-disulfophenyl)-2H-tetrazolium, monosodium salt, Dojindo Laboratories) to each well containing cells; conducting culture in a CO2 incubator for a given period of time to generate water-soluble formazan from WST-1 with the activity of dehydrogenase in mitochondria of viable cells; and assaying the concentration of the generated formazan. […] The formazan concentration was determined based on the absorbance at 450 nm using a microplate reader (reference wavelength: 630 nm). […]

[4] = test system: macrophage cells differentiated from THP-1 cells; assay: Suppression of PGE2 production by macrophage cells activated by amyloid β peptide aggregate (ELISA); type: cell-based, human; conditions: 12.5 to 100 μM compound, 24 h pretreatment; 25 μM Aβ aggregate 24 h; FIG. 1
Description: as §1

Compound	enhancement of IL-1β production by Aβ treatment [1]	enhancement of TNF-α production by Aβ treatment [2]	activity of the culture supernatant for inducing cell death of brain neuronal cells [3]	enhancement of PEG2 production by Aβ treatment [4]
CC(C)=CC(=O)CC(C)c1ccc(C)cc1O (stereo not shown) [termeronol B, Termeronol B]	suppress the enhancement of IL-1β production	suppress the enhancement of TNF-α production	more suppressed	suppress the enhancement of PEG2 production
CC(C)=CC(=O)CC(C)c1ccc(C)c(O)c1 (stereo not shown) [termeronol A, Termeronol A]	suppress the enhancement of IL-1β production	suppress the enhancement of TNF-α production		suppress the enhancement of PEG2 production
